Source: ChEMBL document CHEMBL3232945 (Eur J Med Chem, 2014)

Assays:
[1] = test system: Rattus norvegicus; experiment: Toxicity in anaesthetized-Wistar rat assessed as P-Q ECG interval at 40 mg/kg, ip after 15 mins (reference value: 52.2 +/- 1.158 ms); assay type: organism-based; set-up: dose 40 mg/kg, route intraperitoneal; settings: in vivo, 0.25 h
[2] = test system: Rattus norvegicus; experiment: Toxicity in anaesthetized-Wistar rat assessed as P-Q ECG interval at 40 mg/kg, ip after 30 mins (reference value: […] +/- 0.927 ms); assay type: organism-based; set-up: dose 40 mg/kg, route intraperitoneal; settings: in vivo, 0.5 h
[3] = test system: Rattus norvegicus; experiment: Antihypertensive activity in Wistar rat assessed as mean arterial pressure at 40 mg/kg, ip after 30 mins (reference value: 194.72 +/- 1.002 mmHg); assay type: functional, Artery; settings: route intraperitoneal
[4] = test system: Rattus norvegicus; experiment: Toxicity in anaesthetized-Wistar rat assessed as P-Q ECG interval at 40 mg/kg, ip after 45 mins (reference value: 52.5 +/- 0.780 ms); assay type: organism-based; set-up: dose 40 mg/kg, route intraperitoneal; settings: in vivo, 0.75 h
[5] = test system: Rattus norvegicus; experiment: Toxicity in anaesthetized-Wistar rat assessed as Q-T ECG interval at 40 mg/kg, ip measured immediately at 0 min (reference value: 78.8 +/- 1.030 ms); assay type: organism-based; set-up: dose 40 mg/kg, route intraperitoneal; settings: in vivo, 0 h
[6] = test system: Rattus norvegicus; experiment: Toxicity in anaesthetized-Wistar rat assessed as QRS ECG interval at 40 mg/kg, ip after 30 mins (reference value: 19.9 +/- 1.393 ms); assay type: organism-based; set-up: dose 40 mg/kg, route intraperitoneal; settings: in vivo, 0.5 h
[7] = test system: Rattus norvegicus; experiment: Toxicity in anaesthetized-Wistar rat assessed as P-Q ECG interval at 40 mg/kg, ip measured immediately at 0 min (reference value: 52.4 +/- 0.927 ms); assay type: organism-based; set-up: dose 40 mg/kg, route intraperitoneal; settings: in vivo, 0 h
[8] = test system: Rattus norvegicus; experiment: Toxicity in anaesthetized-Wistar rat assessed as QRS ECG interval at 40 mg/kg, ip after 15 mins (reference value: 18.9 +/- 1.563 ms); assay type: organism-based; set-up: dose 40 mg/kg, route intraperitoneal; settings: in vivo, 0.25 h
[9] = test system: Rattus norvegicus; experiment: Toxicity in […] normotensive Wistar rat assessed as mean arterial pressure at 40 mg/kg, ip after 15 mins (reference value: 93.81 +/- 1.543 mmHg); assay type: organism-based, Artery; set-up: dose 40 mg/kg, route intraperitoneal; settings: in vivo, 0.25 h
[10] = test system: Rattus norvegicus; experiment: Antiarrhythmic activity in barium chloride-induced Wistar rat assessed as increase in appearance time of arrhythmia at 40 mg/kg, ip administered 60 mins before barium chloride challenge (reference value: 129.4 +/- 4.373 sec); assay type: functional, Heart; settings: route intraperitoneal
[11] = test system: Rattus norvegicus; experiment: Toxicity in anaesthetized-Wistar rat assessed as Q-T ECG interval at 40 mg/kg, ip after 60 mins (reference value: 79.7 +/- 0.965 ms); assay type: organism-based; set-up: dose 40 mg/kg, route intraperitoneal; settings: in vivo, 1 h
[12] = test system: Rattus norvegicus; experiment: Toxicity in […] normotensive Wistar rat assessed as mean arterial pressure at 40 mg/kg, ip after 60 mins (reference value: 95.07 +/- 1.973 mmHg); assay type: organism-based, Artery; set-up: dose 40 mg/kg, route intraperitoneal; settings: in vivo, 1 h
[13] = test system: Rattus norvegicus; experiment: Toxicity in anaesthetized-Wistar rat assessed as Q-T ECG interval at 40 mg/kg, ip after 30 mins (reference value: 78.3 +/- 0.860 ms); assay type: organism-based; set-up: dose 40 mg/kg, route intraperitoneal; settings: in vivo, 0.5 h
[14] = test system: Rattus norvegicus; experiment: Toxicity in anesthetized-normotensive Wistar rat assessed as heart rate at 40 mg/kg, ip after 30 mins (reference value: 317.68 +/- 7.631 bpm); assay type: organism-based; set-up: dose 40 mg/kg, route intraperitoneal; settings: in vivo, 0.5 h
[15] = test system: Rattus norvegicus; experiment: Toxicity in […] normotensive Wistar rat assessed as mean arterial pressure at 40 mg/kg, ip after 30 mins (reference value: 94.68 +/- 1.213 mmHg); assay type: organism-based, Artery; set-up: dose 40 mg/kg, route intraperitoneal; settings: in vivo, 0.5 h
[16] = test system: Rattus norvegicus; experiment: Antihypertensive activity in Wistar rat assessed as mean arterial pressure at 40 mg/kg, ip measured immediately at 0 min (reference value: 194.08 +/- 1.962 mmHg); assay type: functional, Artery; settings: route intraperitoneal
[17] = test system: Rattus norvegicus; experiment: Toxicity in anaesthetized-Wistar rat assessed as QRS ECG interval at 40 mg/kg, ip after 60 mins (reference value: 19.3 +/- 0.873 ms); assay type: organism-based; set-up: dose 40 mg/kg, route intraperitoneal; settings: in vivo, 1 h
[18] = test system: Rattus norvegicus; experiment: Toxicity in anesthetized-normotensive Wistar rat assessed as heart rate at 40 mg/kg, ip measured immediately at 0 min (reference value: 316.62 +/- 9.643 bpm); assay type: organism-based; set-up: dose 40 mg/kg, route intraperitoneal; settings: in vivo, 0 h
[19] = test system: Rattus norvegicus; experiment: Toxicity in […] normotensive Wistar rat assessed as mean arterial pressure at 40 mg/kg, ip after 45 mins (reference value: 94.83 +/- 0.943 mmHg); assay type: organism-based, Artery; set-up: dose 40 mg/kg, route intraperitoneal; settings: in vivo, 0.75 h
[20] = test system: Rattus norvegicus; experiment: Toxicity in anaesthetized-Wistar rat assessed as Q-T ECG interval at 40 mg/kg, ip after 15 mins (reference value: 79.4 +/- 1.270 ms); assay type: organism-based; set-up: dose 40 mg/kg, route intraperitoneal; settings: in vivo, 0.25 h
[21] = test system: Rattus norvegicus; experiment: Toxicity in anesthetized-normotensive Wistar rat assessed as heart rate at 40 mg/kg, ip after 60 mins (reference value: 314.96 +/- 9.442 bpm); assay type: organism-based; set-up: dose 40 mg/kg, route intraperitoneal; settings: in vivo, 1 h
[22] = test system: Rattus norvegicus; experiment: Antiarrhythmic activity in barium chloride-induced Wistar rat assessed as increase in mortality time at 40 mg/kg, ip administered 60 mins before barium chloride challenge (reference value: 682.8 +/- 9.656 secs); assay type: functional, Heart; settings: route intraperitoneal
[23] = test system: Rattus norvegicus; experiment: Toxicity in anaesthetized-Wistar rat assessed as QRS ECG interval at 40 mg/kg, ip measured immediately at 0 min (reference value: 19.6 +/- 1.142 ms); assay type: organism-based; set-up: dose 40 mg/kg, route intraperitoneal; settings: in vivo, 0 h
[24] = test system: Rattus norvegicus; experiment: Antihypertensive activity in Wistar rat assessed as mean arterial pressure at 40 mg/kg, ip after 60 mins (reference value: 195.11 +/- 0.531 mmHg); assay type: functional, Artery; settings: route intraperitoneal
[25] = test system: Rattus norvegicus; experiment: Toxicity in anesthetized-normotensive Wistar rat assessed as heart rate at 40 mg/kg, ip after 45 mins (reference value: 316.82 +/- 8.452 bpm); assay type: organism-based; set-up: dose 40 mg/kg, route intraperitoneal; settings: in vivo, 0.75 h
[26] = test system: Rattus norvegicus; experiment: Toxicity in anesthetized-normotensive Wistar rat assessed as heart rate at 40 mg/kg, ip after 15 mins (reference value: 313.93 +/- 9.912 bpm); assay type: organism-based; set-up: dose 40 mg/kg, route intraperitoneal; settings: in vivo, 0.25 h
[27] = test system: Rattus norvegicus; experiment: Antihypertensive activity in Wistar rat assessed as mean arterial pressure at 40 mg/kg, ip after 45 mins (reference value: 193.96 +/- 0.865 mmHg); assay type: functional, Artery; settings: route intraperitoneal
[28] = test system: Rattus norvegicus; experiment: Antihypertensive activity in Wistar rat assessed as mean arterial pressure at 40 mg/kg, ip after 15 mins (reference value: 195.68 +/- 1.623 mmHg); assay type: functional, Artery; settings: route intraperitoneal
[29] = test system: Rattus norvegicus; experiment: Toxicity in anaesthetized-Wistar rat assessed as P-Q ECG interval at 40 mg/kg, ip after 60 mins (reference value: […] +/- 0.924 ms); assay type: organism-based; set-up: dose 40 mg/kg, route intraperitoneal; settings: in vivo, 1 h
[30] = test system: Rattus norvegicus; experiment: Toxicity in […] normotensive Wistar rat assessed as mean arterial pressure at 40 mg/kg, ip measured immediately at 0 min (reference value: 94.21 +/- 2.065 mmHg); assay type: organism-based, Artery; set-up: dose 40 mg/kg, route intraperitoneal; settings: in vivo, 0 h
[31] = test system: Rattus norvegicus; experiment: Toxicity in anaesthetized-Wistar rat assessed as QRS ECG interval at 40 mg/kg, ip after 45 mins (reference value: 20.2 +/- 1.348 ms); assay type: organism-based; set-up: dose 40 mg/kg, route intraperitoneal; settings: in vivo, 0.75 h

SMILES	Activity [1] [min]	Activity [2] [min]	Activity [3] [mmHg]	Activity [4] [min]	Activity [5] [min]	Activity [6] [ms]	Activity [7] [ms]	Activity [8] [min]	Activity [9] [mmHg]	Time [10] [s]	Activity [11] [ms]	Activity [12] [mmHg]	Activity [13] [min]	Activity [14] [bpm]	Activity [15] [mmHg]	Activity [16] [mmHg]	Activity [17] [min]	Activity [18] [bpm]	Activity [19] [mmHg]	Activity [20] [min]	further results
CN1CCN(CC(O)CN2C(=O)/C(=C\c3ccccc3)S/C2=N\c2ccccc2)CC1 (stereo not drawn)	53.2	54.4	157.99	54.9	74.5	23.2	53	22.6	79.37	349.7	75.6	74.63	75.2	256.32	63.43	196.43	24	305.65	64.51	74.8	Activity [21]: 302.28 bpm; Time [22]: 1276 s; Activity [23]: 22.4 min; Activity [24]: 162.19 mmHg; Activity [25]: 283.56 bpm; Activity [26]: 290.24 bpm; Activity [27]: 134.44 mmHg; Activity [28]: 182.76 mmHg; Activity [29]: 55.6 min; Activity [30]: 91.93 mmHg; Activity [31]: 23.6 min
O=C1/C(=C\c2ccccc2)S/C(=N\c2ccccc2)N1CC(O)CN1CCN(Cc2ccccc2)CC1 (stereo not drawn)	50.4	50.9	160.63	51.3	74.3	23.8	49.8	23.2	92.1	296.9	74.2	85.44	73.2	283.52	78.19	194.51	23.7	333.62	72.57	74.9	Activity [21]: 312.21 bpm; Time [22]: 986.7 s; Activity [23]: 23.4 min; Activity [24]: 179.51 mmHg; Activity [25]: 298.21 bpm; Activity [26]: 312.34 bpm; Activity [27]: 166.41 mmHg; Activity [28]: 179.02 mmHg; Activity [29]: 52.7 min; Activity [30]: 95.09 mmHg; Activity [31]: 23.1 min
O=C1/C(=C\c2ccccc2)S/C(=N\c2ccccc2)N1CC(O)CN1CCCC1 (stereo not drawn)	51.6	54.3	148.37	53.3	70.6	22.5	50.2	21.3	84.63	285.3	70.9	73.12	72.6	256.85	74.76	196.1	20.6	318.73	69.69	71.2	Activity [21]: 309.32 bpm; Time [22]: 918.8 s; Activity [23]: 20.5 min; Activity [24]: 177.56 mmHg; Activity [25]: 287.15 bpm; Activity [26]: 298.54 bpm; Activity [27]: 149.39 mmHg; Activity [28]: 165.01 mmHg; Activity [29]: 52.8 min; Activity [30]: 93.02 mmHg; Activity [31]: 21.1 min
